Experimental findings from patent US20220177428A1, “SPECIFICALLY SUBSTITUTED 3-(2-ALKOXY-6-ALKYL-4-PROPINYLPHENYL)-3-PYRROLIN-2-ONES AND THEIR USE AS HERBICIDES” (Bayer Aktiengesellschaft, priority 2019, published 2022) are described below.

Holding throughout (assay type): in vivo
In assay [1] the test system is Echinochloa crus-galli. Nature of the assay: Post-emergence herbicidal effect. As to conditions: 80 g ai/ha, visual score after about 3 weeks. Here is the method: (§1) [table] Seeds of monocotyledonous and dicotyledonous weed and crop plants are laid out in sandy loam soil in wood-fibre pots, covered with soil and cultivated in a greenhouse under good growth conditions. 2 to 3 weeks after sowing, the test plants are treated at the one-leaf stage. The compounds of the invention, formulated in the form of wettable powders (WP) or as emulsion concentrates (EC), are then sprayed onto the green parts of the plants as aqueous suspension or emulsion at a water application rate equating to 600 to 800 L/ha with addition of 0.2% wetting agent. After the test plants have been left to stand in the greenhouse under optimal growth conditions for about 3 weeks, the action of the preparations is assessed visually in comparison to untreated controls (herbicidal action in percent (%): 100% activity=the plants have died, 0% activity=like control plants).

Assay [2] relates to Alopecurus myosuroides. Briefly: Post-emergence herbicidal effect. Particulars: 80 g ai/ha, visual score after about 3 weeks. Here is the method:
as §1

Assay [3] relates to Digitaria sanguinalis. Briefly: Post-emergence herbicidal effect. Particulars: 80 g ai/ha, visual score after about 3 weeks. Here is the method:
as §1

Assay [4] deals with Lolium rigidum. Nature of the assay: Post-emergence herbicidal effect. Particulars: 80 g ai/ha, visual score after about 3 weeks. Here is the method:
as §1

Assay [5] concerns Setaria viridis. Briefly: Post-emergence herbicidal effect. Particulars: 80 g ai/ha, visual score after about 3 weeks. The protocol: as §1
The test system of assay [6] is Avena fatua. Nature of the assay: Post-emergence herbicidal effect. Particulars: 80 g ai/ha, visual score after about 3 weeks. Here is the method: as §1
A further assay deals with Hordeum murinum. Briefly: Post-emergence herbicidal effect. As to conditions: 80 g ai/ha, visual score after about 3 weeks. The protocol:
as §1

Assay [7] relates to Echinochloa crus-galli. Briefly: Pre-emergence herbicidal effect. As to conditions: visual score after 3 weeks. The source says: (§2) Seeds of monocotyledonous and dicotyledonous weed plants and crop plants are laid out in sandy loam soil in wood-fibre pots and covered with soil. The compounds of the invention, formulated in the form of wettable powders (WP) or as emulsion concentrates (EC), are then applied to the surface of the covering soil as aqueous suspension or emulsion at a water application rate equating to 600 to 800 L/ha with addition of 0.2% wetting agent. After the treatment, the pots are placed in a greenhouse and kept under good growth conditions for the trial plants. The damage to the test plants is scored visually after a test period of 3 weeks by comparison with untreated controls (herbicidal activity in percent (%): 100% activity=the plants have died, 0% activity=like control plants). [table]

Another assay deals with Viola tricolor. Briefly: Pre-emergence herbicidal effect. Particulars: visual score after 3 weeks.
Description: as §2

Assay [8] has as its system Alopecurus myosuroides. Briefly: Pre-emergence herbicidal effect. As to conditions: visual score after 3 weeks.
Description: as §2

Another assay has as its system Abutylon threophrasti. Nature of the assay: Pre-emergence herbicidal effect. Particulars: 320 g ai/ha, visual score after 3 weeks.
Description: as §2

The subject of assay [9] is Digitaria sanguinalis. Nature of the assay: Pre-emergence herbicidal effect. As to conditions: visual score after 3 weeks.
Description: as §2

Assay [10] concerns Lolium rigidum. Briefly: Pre-emergence herbicidal effect. Particulars: visual score after 3 weeks.
Description: as §2

The subject of assay [11] is Setaria viridis. Nature of the assay: Pre-emergence herbicidal effect. As to conditions: visual score after 3 weeks.
Description: as §2

A further assay deals with Matricaria inodora. Nature of the assay: Pre-emergence herbicidal effect. Particulars: 320 g ai/ha, visual score after 3 weeks.
Description: as §2

The subject of a further assay is Amaranthus retroflexus. Briefly: Pre-emergence herbicidal effect. As to conditions: 320 g ai/ha, visual score after 3 weeks.
Description: as §2

Assay [12] deals with Avena fatua. Nature of the assay: Pre-emergence herbicidal effect. As to conditions: visual score after 3 weeks.
Description: as §2

A further assay concerns Veronica persica. Briefly: Pre-emergence herbicidal effect. As to conditions: 320 g ai/ha, visual score after 3 weeks.
Description: as §2

With `CC#Cc1cc(C)c(C2=C(OC(=O)C(C)C)C3(CCCC(OCCC)C3)NC2=O)c(OC)c1` (stereo not shown) [Example P4], the “Post-emergence activity ECHCG” value with Echinochloa crus-galli [1] turned out to be 100%. Besides, in the assay with Alopecurus myosuroides [2], the “Post-emergence activity ALOMY” value is 100%. For the same compound, the “Post-emergence activity DIGSA” value in the assay with Digitaria sanguinalis [3] was found to be 90%. Besides, the “Post-emergence activity LOLRI” value with Lolium rigidum [4] turned out to be 100%. In the assay on Setaria viridis [5], the “Post-emergence activity SETVI” value turned out to be 100%. Moreover, the “Post-emergence activity AVEFA” value in the assay on Avena fatua [6] is listed as 100%. In the assay with Hordeum murinum, the “Post-emergence activity HORMU” value was found to be 100%.

Turning to `CC#Cc1cc(C)c(C2=C(OC(=O)OCC)C3(CCC(OCCC)CC3)NC2=O)c(OC)c1` (stereo not shown) [Example Q2], the “Pre-emergence activity ECHCG” value with Echinochloa crus-galli [7] (80 g ai/ha) and in the assay with Echinochloa crus-galli [7] (320 g ai/ha) was 100% in each case. Moreover, the “Pre-emergence activity VIOTR” value in the assay on Viola tricolor (80 g ai/ha) and in the assay on Viola tricolor (320 g ai/ha) was 100% each time. The “Pre-emergence activity ALOMY” value in the assay on Alopecurus myosuroides [8] (80 g ai/ha) and in the assay on Alopecurus myosuroides [8] (320 g ai/ha) was 100% each time. In the assay on Abutylon threophrasti, the “Pre-emergence activity ABUTH” value amounted to 90%. Also, the “Pre-emergence activity DIGSA” value with Digitaria sanguinalis [9] (80 g ai/ha) and with Digitaria sanguinalis [9] (320 g ai/ha) was 100% throughout. The “Pre-emergence activity LOLRI” value in the assay on Lolium rigidum [10] (80 g ai/ha) and in the assay with Lolium rigidum [10] (320 g ai/ha) was 100% each time. Also, the “Pre-emergence activity SETVI” value in the assay with Setaria viridis [11] (80 g ai/ha) and with Setaria viridis [11] (320 g ai/ha) was 100% each time. Besides, in the assay on Matricaria inodora, the “Pre-emergence activity MATIN” value came out at 100%. For the same compound, the “Pre-emergence activity AMARE” value in the assay with Amaranthus retroflexus is 100%. For the same compound, the results for the “Pre-emergence activity AVEFA” value in the assay with Avena fatua [12] (80 g ai/ha) and with Avena fatua [12] (320 g ai/ha) were 80% and 100%, respectively. Further, in the assay with Veronica persica, the “Pre-emergence activity VERPE” value came to 90%. For the same compound, in the assay with Echinochloa crus-galli [1], the “Post-emergence activity ECHCG” value came out at 100%. For the same compound, the “Post-emergence activity ALOMY” value in the assay with Alopecurus myosuroides [2] is listed as 100%. Besides, the “Post-emergence activity DIGSA” value in the assay with Digitaria sanguinalis [3] was 100%. The “Post-emergence activity LOLRI” value in the assay with Lolium rigidum [4] came out at 100%. Also, the “Post-emergence activity SETVI” value with Setaria viridis [5] is on record as 100%. Further, in the assay with Avena fatua [6], the “Post-emergence activity AVEFA” value is given as 90%.

With `C=CCOC1CCC2(CC1)NC(=O)C(c1c(C)cc(C#CC)cc1OC)=C2OC(=O)OCC` (stereo not shown) [Example Q4], in the assay on Echinochloa crus-galli [7] (80 g ai/ha), the “Pre-emergence activity ECHCG” value is listed as 100%. In addition, the “Pre-emergence activity VIOTR” value with Viola tricolor (80 g ai/ha) was determined as 100%. For the same compound, the “Pre-emergence activity ALOMY” value in the assay on Alopecurus myosuroides [8] (80 g ai/ha) is 100%. In addition, in the assay on Digitaria sanguinalis [9] (80 g ai/ha), the “Pre-emergence activity DIGSA” value turned out to be 100%. For the same compound, the “Pre-emergence activity LOLRI” value in the assay with Lolium rigidum [10] (80 g ai/ha) stood at 100%. In addition, the “Pre-emergence activity SETVI” value with Setaria viridis [11] (80 g ai/ha) was 100%. For the same compound, in the assay on Avena fatua [12] (80 g ai/ha), the “Pre-emergence activity AVEFA” value is 90%. The “Post-emergence activity ECHCG” value with Echinochloa crus-galli [1] is 100%. Moreover, the “Post-emergence activity ALOMY” value in the assay on Alopecurus myosuroides [2] is recorded as 100%. Further, in the assay on Digitaria sanguinalis [3], the “Post-emergence activity DIGSA” value was found to be 100%. For the same compound, in the assay on Lolium rigidum [4], the “Post-emergence activity LOLRI” value turned out to be 100%. For the same compound, the “Post-emergence activity SETVI” value with Setaria viridis [5] was 100%. Further, the “Post-emergence activity AVEFA” value in the assay with Avena fatua [6] worked out at 90%. Moreover, the “Post-emergence activity HORMU” value in the assay on Hordeum murinum worked out at 100%.

Regarding `CC#Cc1cc(C)c(C2=C(O)C3(CCCC(OCCC)C3)NC2=O)c(OC)c1` (stereo not shown) [Example D1, 4-Hydroxy-3-[2-methoxy-6-methyl-4-(prop-1-yn-1-yl)phenyl]-7-propoxy-1-azaspiro[4.5]dec-3-en-2-one], the “Post-emergence activity ECHCG” value in the assay with Echinochloa crus-galli [1] is 100%. In addition, the “Post-emergence activity ALOMY” value in the assay on Alopecurus myosuroides [2] came out at 100%. Further, the “Post-emergence activity DIGSA” value in the assay on Digitaria sanguinalis [3] is reported as 100%. In addition, the “Post-emergence activity LOLRI” value in the assay with Lolium rigidum [4] was determined as 100%. Moreover, the “Post-emergence activity SETVI” value in the assay with Setaria viridis [5] amounted to 100%. Further, the “Post-emergence activity AVEFA” value in the assay with Avena fatua [6] was 100%. For the same compound, in the assay on Hordeum murinum, the “Post-emergence activity HORMU” value was found to be 100%.

With `C=CCOC1CCC2(CC1)NC(=O)C(c1c(C)cc(C#CC)cc1OC)=C2OC(=O)OC` (stereo not shown) [Example Q3], the “Post-emergence activity ECHCG” value with Echinochloa crus-galli [1] was found to be 100%. In the assay with Alopecurus myosuroides [2], the “Post-emergence activity ALOMY” value stood at 100%. In the assay on Digitaria sanguinalis [3], the “Post-emergence activity DIGSA” value is 90%. In addition, in the assay with Lolium rigidum [4], the “Post-emergence activity LOLRI” value came out at 100%. Further, the “Post-emergence activity SETVI” value in the assay on Setaria viridis [5] is given as 100%. Moreover, in the assay with Avena fatua [6], the “Post-emergence activity AVEFA” value is 80%. Besides, the “Post-emergence activity HORMU” value in the assay on Hordeum murinum is reported as 100%.

As for `CC#Cc1cc(C)c(C2=C(O)C3(CCC(OCCC)CC3)NC2=O)c(OC)c1` (stereo not shown) [Example D2], the “Pre-emergence activity ECHCG” value in the assay with Echinochloa crus-galli [7] (80 g ai/ha) is recorded as 80%; in the assay on Echinochloa crus-galli [7] (320 g ai/ha), 100%. Besides, the “Pre-emergence activity VIOTR” value with Viola tricolor (80 g ai/ha) and in the assay with Viola tricolor (320 g ai/ha) was 100% throughout. In addition, the “Pre-emergence activity ALOMY” value with Alopecurus myosuroides [8] (80 g ai/ha) is reported as 80%; in the assay on Alopecurus myosuroides [8] (320 g ai/ha), 100%. For the same compound, the “Pre-emergence activity ABUTH” value in the assay with Abutylon threophrasti was found to be 100%. Further, the “Pre-emergence activity DIGSA” value in the assay with Digitaria sanguinalis [9] (80 g ai/ha) and in the assay with Digitaria sanguinalis [9] (320 g ai/ha) was 100% in each case. In addition, the results for the “Pre-emergence activity LOLRI” value with Lolium rigidum [10] (80 g ai/ha) and in the assay with Lolium rigidum [10] (320 g ai/ha) were 90% and 100%, respectively. Besides, the “Pre-emergence activity SETVI” value in the assay with Setaria viridis [11] (80 g ai/ha) and in the assay with Setaria viridis [11] (320 g ai/ha) was 100% in each case. Moreover, the “Pre-emergence activity MATIN” value with Matricaria inodora came out at 100%. In addition, the “Pre-emergence activity AMARE” value in the assay with Amaranthus retroflexus is recorded as 100%. Also, the “Pre-emergence activity AVEFA” value in the assay on Avena fatua [12] (320 g ai/ha) stood at 100%. Moreover, the “Pre-emergence activity VERPE” value in the assay on Veronica persica amounted to 80%. The “Post-emergence activity ECHCG” value with Echinochloa crus-galli [1] was determined as 100%. In the assay with Alopecurus myosuroides [2], the “Post-emergence activity ALOMY” value worked out at 100%. Also, the “Post-emergence activity DIGSA” value in the assay with Digitaria sanguinalis [3] is reported as 100%. For the same compound, the “Post-emergence activity LOLRI” value with Lolium rigidum [4] came out at 100%. The “Post-emergence activity SETVI” value in the assay on Setaria viridis [5] is 100%. Further, the “Post-emergence activity AVEFA” value in the assay with Avena fatua [6] stood at 100%.
